Measured values as given in patent publication US12357624B2, “Low dose pridopidine for Parkinson's Disease and other diseases associated with parkinsonism” (PRILENIA NEUROTHERAPEUTICS LTD., priority 2019, dated 2025).
Where two headings read alike, the source gives them in different places.

Experiments:
6-OHDA-lesioned mice = tested on: 6-OHDA-lesioned mice
Experimental: The study was performed in male C57B16J mice weighing approx. 25 g and having an age of 8 to 9 weeks at the beginning of the experiments. A total of 65 wild-type mice and 52 S1R knockout (KO) mice were used. S1R knockout mice and wild-type littermates (both genders) were bred on a C57BL6J background. Our S1R KO line is derived from the well-characterized Sigmar1^Gt(OST422756)Lex mouse strain distributed by the Mutant Mouse Resource Regional Centre (MMRRC) The mice were housed under a 12-h light/dark cycle with free access to food and water.
Lesions were performed according to previously described procedures [Francardo V, Bez F, Wieloch T, Nissbrandt H, Ruscher K, Cenci 33. MA. […] Brain: A Journal of Neurology. […] 6-OHDA-HCl (Sigma-Aldrich AB, Stockholm, Sweden) was freshly dissolved in 0.02% ascorbate-saline at the concentration of 3.2 mg free base per milliliter. […] The solution was injected via a glass capillary (tip diameter−50 (1 m) at the rate of 0.5 (1 L/min, and the capillary was left in place for 2 mi after each injection.
The first injection was given immediately upon completion of lesion surgery. […] An impaired capacity to perform adjusting steps during experimenter-imposed movements (stepping test) reflects both akinetic and postural deficits relevant to PD [Blume S R, Cass D K, Tseng K Y. Stepping test in mice: a reliable approach in determining forelimb akinesia in MPTP-induced Parkinson's Disease. Experimental Neurology. […] Experimental Neurology. […] The mouse was placed at the entrance of a custom-made plastic corridor (7 cm wide, 1 m long, flanked by 10-cm-high walls), gently lifted by the tail, and pulled backwards with a fixed speed (1 m/4 s). Each trial was video-recorded, and the footage was used to count the number of adjusting steps performed by each forelimb. Trials in which mice turned their body by 90° towards the walls of the corridor (in an attempt to escape or explore) were discarded. In each session, mice were tested until 3 valid trials per animal were obtained. Results were expressed as the percentage of steps performed by the forelimb contralateral to the lesion (left) over the total number of steps (mean of 3 trials per session).

[1] = tested on: TH-positive neurons in the substantia nigra compacta; settings: 35 days
Experimental: (§1) Mice allocated to immunohistochemistry were perfusion-fixed on the day after the last rug/saline administration (interval of approx. 20 h from the last injection). Animals were deeply anesthetized with sodium pentobarbital (240 mg/kg, i.p.) and transcardially perfused with 0.9% saline solution, followed by ice-cold buffered 4% paraformaldehyde (pH 7.4). […] Coronal sections of 30 (1 m thickness were cut on a sliding microtome and stored at −20° C. in a nonfreezing solution (30% ethylene glycol and 30% glycerol in 0.1 M phosphate buffer).
(§2) Immunohistochemistry and quantitative analyses were performed according to established protocols [Francardo V, Bez F, Wieloch T, Nissbrandt H, Ruscher K, Cenci 33. MA. Neurobiology of Disease. […] Experimental Eye Research. […] (rabbit anti-TH antiserum from Pel-Freez, Rogers, AR, 1:1000) and Cluster of Differentiation 68 (CD68) (rat anti-CD68 antiserum from AbD Serotec, Kidlington, Oxfordshire, UK; 1:1000). Quantitative analyses were performed by an experimentally blinded investigator using the following methods.
The number of TH-positive cell bodies in the substantia nigra compacta (SNc) was determined using unbiased stereology according to the optical fractionator method as in [West M J. Stereological methods for estimating the total number of neurons and synapses: issues of precision and bias. Trends in Neurosciences.
Analysis was performed using a Nikon 80i microscope with an x-y motorized stage controlled by the NewCAST software (Visiopharm). The sampling fraction was chosen so as to count at least 100 neurons per side per animal following an established protocol [Francardo V, Recchia A, Popovic N, Andersson D, Nissbrandt H, Cenci M A. Impact of the lesion procedure on the profiles of motor impairment and molecular responsiveness to L-DOPA in the 6-hydroxydopamine mouse model of Parkinson's disease. Neurobiology of Disease. […] Trends in Neurosciences.

[2] = tested on: TH-immunoreactive fibers in the lateral striatum; settings: chronic
Experimental: as §1, §2
Results were expressed as the total number of TH-immunopositive pixels per sample area (averaged across areas). […] The high-magnification analysis of TH fibers on random sample areas was complemented by optical density (O.D.) measurements of TH immunostaining across the entire dorsolateral and ventro-lateral striatum. […]

[3] = tested on: CD68-immunopositive microglial cells; settings: 1 mg/kg
Experimental: as §2
The European Journal of Neuroscience. […] Seminars in Immunopathology.

WT and YAC128 neurons = settings: 24 h treatment; after oligomycin plus FCCP
Experimental: Mitochondrial function was assayed by measuring the levels of the fluorescent probe MitoPY1, which detects H2O2 levels in mitochondria. Mitochondrial membrane potential (MMP) was assessed in cortical and striatal neurons using the positively changed fluorescent probe TMRM (tetramethylrhodamine methyl ester). […] Under these conditions, retention of TMRM by mitochondria was studied to estimate changes in Dym. […] TMRM release was calculated based in the differences in fluorescence before and after addition of oligomycin/FCCP.

S1R = S1R (Mus musculus, UniProt O55242); settings: both doses of 0.3 and 1 mg/kg; judged plausible from Ki and free brain concentration
Sequence of S1R (O55242 whole entry): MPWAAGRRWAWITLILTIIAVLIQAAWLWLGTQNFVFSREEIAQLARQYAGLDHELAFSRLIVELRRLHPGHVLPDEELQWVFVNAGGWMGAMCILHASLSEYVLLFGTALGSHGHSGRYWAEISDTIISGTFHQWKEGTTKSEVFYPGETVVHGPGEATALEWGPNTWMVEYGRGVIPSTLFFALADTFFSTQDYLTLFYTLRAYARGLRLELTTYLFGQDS

[4] = tested on: B104 neuroblastoma cell line; settings: 100 nM and 1 μM; vs control untreated cells; cited from earlier work
[5] = target: Sigma-1 receptor (S1R) vs dopamine D2/D3Rs (Rattus norvegicus, UniProt Q9R0C9); settings: rats; behaviorally relevant doses; cited from earlier work
Sequence of Sigma-1 receptor (S1R) vs dopamine D2/D3Rs (Q9R0C9 whole entry): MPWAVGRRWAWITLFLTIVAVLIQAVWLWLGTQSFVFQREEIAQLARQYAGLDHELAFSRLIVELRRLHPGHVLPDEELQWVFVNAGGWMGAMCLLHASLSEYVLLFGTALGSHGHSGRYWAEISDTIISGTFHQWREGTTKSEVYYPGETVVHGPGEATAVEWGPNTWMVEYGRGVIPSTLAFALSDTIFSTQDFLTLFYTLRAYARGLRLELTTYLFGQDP

## CCCN1CCC(c2cccc(S(C)(=O)=O)c2)CC1 [pridopidine, 4-[3-(methylsulfonyl)phenyl]-1-propyl-piperidine]
6-OHDA-lesioned mice; 0.3 mg/kg s.c. daily
  stepping test performance: gradual improvement, diverging significantly from the saline-treated group on weeks 4 and 5
6-OHDA-lesioned mice; 0.3 mg/kg s.c. daily, week 5
  stepping test, improvement above the vehicle (saline): ~94%
6-OHDA-lesioned mice; 1.0 mg/kg s.c. daily, last 2 weeks
  stepping test performance: difference from saline-treated mice did not reach significance
6-OHDA-lesioned mice; 1.0 mg/kg s.c. daily, week 5
  stepping test, difference vs sham: ~49%
6-OHDA-lesioned mice; week 1, pridopidine-treated mice (0.3 or 1.0 mg/kg)
  stepping test, difference vs sham: ~60%
[1]; 0.3 mg/kg s.c. daily
  increase in TH-positive neurons relative to saline treatment: ~55%
  number of TH-positive neurons, SNc ipsilateral to the lesion: 3034 cells
[1]; 1.0 mg/kg s.c. daily
  number of TH-positive neurons, SNc ipsilateral to the lesion: ~1901 cells
[1]; 1.0 mg/kg s.c. daily, vs saline
  protection of dopaminergic cell bodies in SNc: did not, however, confer significant protection of dopaminergic cell bodies in SNc
[2]; 0.3 mg/kg s.c. daily
  TH fiber profiles, increase in median values relative to saline: about 15 fold
[2]; 1.0 mg/kg s.c. daily
  TH fiber profiles vs saline: did not achieve statistical significance
[3]; SNc
  number of CD68-immunopositive microglial cells: trend towards an effect in the SNc
[3]; ventrolateral striatum
  number of CD68-immunopositive microglial cells: not in the ventrolateral striatum
WT and YAC128 neurons
  mitochondrial membrane potential (ΔΨm): increases mitochondrial membrane potential
S1R
  occupancy of the S1R at Cmax: 100%
[4]
  BDNF secretion: enhanced BDNF secretion
[5]
  receptor occupancy, in vivo PET: occupy the Sigma-1 receptor (S1R) rather than the dopamine D2/D3Rs
